Changes are numbered by the printed parent chain. Marks after values point to notes of the source that are not given here.
Columns and labels:
[1] = tested on: HTZ-146 cells; assay: MTT reduction cell viability assay, HTZ-146 cells; assay type: cell-based, human
Procedure: (§1) Cell viability was assessed in HEK-293 cells, human dopaminergic neuroblastoma cells (SH-SY5Y) and human glioblastoma cells (HTZ-146) by the MTT test as described.[22] […] For indication of metabolic activity, cells were treated with MTT reagent (15 µl of 1 mg/ml stock solution per well) for 1 h, and after drying of culture plates for 1 h at 37°C, the resulting formazan dye was extracted with isopropanol/HCl (100 µl 0.04 mol/l per well) and absorbance was determined spectrophotometrically at 568 nm. Results were in agreement with the data obtained by the tryptan blue exclusion method (data not shown).

[2] = target: T1, OCT2 variant M165I (Homo sapiens, UniProt O15244, M165I/S270A); assay: Specific uptake into HEK-293 cells transfected with OCT2 variant M165I
T1 sequence (O15244 1-555 M165I/S270A): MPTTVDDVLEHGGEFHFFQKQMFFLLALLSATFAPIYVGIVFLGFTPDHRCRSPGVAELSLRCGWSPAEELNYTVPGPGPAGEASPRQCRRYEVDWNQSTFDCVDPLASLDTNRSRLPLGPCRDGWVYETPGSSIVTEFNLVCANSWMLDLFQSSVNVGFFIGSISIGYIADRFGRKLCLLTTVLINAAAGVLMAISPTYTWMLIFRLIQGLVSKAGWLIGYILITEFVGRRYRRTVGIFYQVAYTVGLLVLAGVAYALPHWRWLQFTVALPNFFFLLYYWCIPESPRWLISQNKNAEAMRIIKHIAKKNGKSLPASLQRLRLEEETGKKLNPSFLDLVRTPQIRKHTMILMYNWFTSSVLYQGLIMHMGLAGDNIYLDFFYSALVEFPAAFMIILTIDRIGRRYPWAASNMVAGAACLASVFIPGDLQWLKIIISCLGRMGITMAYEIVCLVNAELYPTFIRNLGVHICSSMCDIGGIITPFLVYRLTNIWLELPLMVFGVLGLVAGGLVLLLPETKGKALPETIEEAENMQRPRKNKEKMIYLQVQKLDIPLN
Procedure: (§2) The cDNAs encoding the organic cation transporters OCT1 (GenBank accession no. NM_003057), OCT2 (NM_003058), and EMT (NM_021977) were amplified by RT-PCR from human liver, kidney, and placenta total RNA respectively, and subcloned into the eukaryotic expression vector pcDNA3. The cDNA encoding the norepinephrine transporter (SLC6A2) was kindly provided by C. Pifl (University of Vienna).
For uptake experiments, cells were grown on polystyrene dishes of 60 mm diameter to at least 80% confluence. […] Cells were lysed with 1 ml of 4 mmol/l perchloric acid and lysates subjected to LC-MS-MS quantification. Cellular protein content was determined after solubilization of perchloric acid precipitates with 1 ml of […] NaOH using the bicinchoninic assay (BCA Protein Assay Kit, Pierce).
Chromatographic separations were performed on Hypercarb (5 µm, 50×2.1 mm; Thermo Electron), Aquasil C18 (3 µm, 100×4.6 mm; Thermo Electron), or Hilic columns (5 µm, 100×3.0 mm; Waters Atlantis) by isocratic or gradient elution using 0.1% aqueous formic acid (A) and acetonitrile or methanol (B) as solvent system. For quantification, SRM transitions of a precursor ion [M+H]^+ into a specific fragment ion (peak area ratios relative to IS) were recorded in positive ESI mode at 1.0–1.5 mTorr collision pressure and 10–40 eV collision energy. […]

[3] = target: T2, OCT2 variant R400C (Homo sapiens, UniProt O15244, R400C/S270A); assay: Specific uptake into HEK-293 cells transfected with OCT2 variant R400C (mutant 400C); conditions: for Clin: incubation with 10 µmol/l
T2 sequence (O15244 1-555 S270A/R400C): T1 sequence (O15244 1-555 M165I/S270A) with I165M, R400C
Procedure: as §2
For uptake experiments, cells were grown on polystyrene dishes of 60 mm diameter to at least 80% confluence. Prior to addition of test compounds, culture medium was replaced by 3 ml HEPES-modified Krebs buffer (140.0 mmol/l NaCl, 5.0 mmol/l KCl, 2.0 mmol/l CaCl2, 1.0 mmol/l MgCl2, 10.0 mmol/l HEPES, and 5.0 mmol/l D-glucose, adjusted to pH 7.40), and cells were left to equilibrate for 60 min at 37°C. Uptake was terminated after indicated times by washing cells with ice-cold buffer. Cells were lysed with 1 ml of 4 mmol/l perchloric acid and lysates subjected to LC-MS-MS quantification. Cellular protein content was determined after solubilization of perchloric acid precipitates with 1 ml of […] NaOH using the bicinchoninic assay (BCA Protein Assay Kit, Pierce).
Chromatographic separations were performed on Hypercarb (5 µm, 50×2.1 mm; Thermo Electron), Aquasil C18 (3 µm, 100×4.6 mm; Thermo Electron), or Hilic columns (5 µm, 100×3.0 mm; Waters Atlantis) by isocratic or gradient elution using 0.1% aqueous formic acid (A) and acetonitrile or methanol (B) as solvent system. For quantification, SRM transitions of a precursor ion [M+H]^+ into a specific fragment ion (peak area ratios relative to IS) were recorded in positive ESI mode at 1.0–1.5 mTorr collision pressure and 10–40 eV collision energy. External calibration curves were obtained from serial dilutions of the analyte in 4 mmol/l HClO4 by linear or logistic regression. Detection limit was at least 0.001 nmol/mg protein.
Uptake versus time data were fitted by linear one-compartment kinetics: cin(t) = cin,∞·(1−e^−kex·t), where cin(t) represents intracellular free substrate concentration after time t (pmol/mg protein), cin,∞ extrapolated maximal intracellular free substrate concentration (pmol/mg protein), and kex efflux rate constant (1/min). Influx clearance was calculated as CLin = cin,∞/cex·kex (µl/mg protein/min), with cex extracellular free substrate concentration (pmol/µl). Statistical significance of differences between two treatments was evaluated by the unpaired two-tailed t-test or Mann-Whitney U-test, differences between more than two treatments by one-way ANOVA or Kruskal-Wallis test, as applicable. P<0.05 was considered statistically significant.

[4] = target: T3, norepinephrine transporter (NET) (Homo sapiens, UniProt P23975); assay: Specific uptake into norepinephrine transporter (NET) transfected HEK-293 cells; assay type: cell-based; conditions: 10 µmol/l, 5 min incubation
T3 construct: expressed in transfected cells; host or cells: HEK-293, stably transfected; cDNA from C; Pifl (University of Vienna)
Description: Pifl (University of Vienna).
1. Burnette WB, Bailey MD, Kukoyi S, Blakely RD, Trowbridge CG, et al. (1996) Human norepinephrine transporter kinetics using rotating disk electrode voltammetry. Anal Chem 68: 2932–2938. (0.90 MB TIF) Click here for additional data file.

[5] = tested on: HEK-293 cells expressing empty vector; assay: MTT reduction cell viability assay, empty vector transfected HEK-293 cells; assay type: cell-based, human
Procedure: as §1

T3 sequence (P23975 whole entry): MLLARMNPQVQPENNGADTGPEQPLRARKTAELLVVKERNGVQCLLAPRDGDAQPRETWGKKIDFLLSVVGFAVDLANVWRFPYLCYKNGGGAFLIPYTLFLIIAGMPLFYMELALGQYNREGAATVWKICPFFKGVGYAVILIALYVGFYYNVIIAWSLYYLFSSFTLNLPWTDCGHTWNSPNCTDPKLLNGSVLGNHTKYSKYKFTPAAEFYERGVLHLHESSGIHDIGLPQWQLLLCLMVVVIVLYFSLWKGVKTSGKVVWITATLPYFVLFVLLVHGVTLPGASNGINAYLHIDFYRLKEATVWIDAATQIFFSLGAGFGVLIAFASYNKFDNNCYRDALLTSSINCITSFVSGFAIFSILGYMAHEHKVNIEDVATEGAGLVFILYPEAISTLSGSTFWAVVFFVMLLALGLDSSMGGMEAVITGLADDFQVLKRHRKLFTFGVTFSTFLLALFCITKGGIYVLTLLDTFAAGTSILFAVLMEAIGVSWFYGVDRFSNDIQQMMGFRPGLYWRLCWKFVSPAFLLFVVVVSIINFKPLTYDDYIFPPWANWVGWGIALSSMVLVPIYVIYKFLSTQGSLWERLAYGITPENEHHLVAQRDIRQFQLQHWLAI

In the case of `CC1NCCc2cc(O)c(O)cc21` (centres unmarked) [salsolinol], the EC50 ([1]; Homo sapiens, 48 h, non-pretreated, read-out: EC50 (95% confidence interval), cell viability) is reported as 138 µM, the Km at 1 min ([2]; human, pH 7.4) is reported as 127 µM and the Km at 1 min ([3]; human, pH 7.4) is reported as 123 µM. The “substrate of NET (specific uptake)” value [4] was “no substrates of NET” and the EC50 ([5]; Homo sapiens, HEK293, 48 h exposure, no pretreatment, read-out: EC50 (95% confidence interval), cell viability) was 1110 µM.
For `O=C1NC(Cc2c[nH]cn2)C(=O)N2CCCC12` (centres unmarked) [cyclo(his-pro), histidyl-proline diketopiperazine], the “effect on glutamate-induced cytotoxicity” value ([1]; pre-treated 1 h with 10 µmol/l cyclo(his-pro)) was “prevented”, the Clin ([2]; incubation with 10 µmol/l, mean (s.e.m.)) was 24.8 (3.7) µl/mg/min and the Vmax ([3]; 1 min of loading, mean (s.e.m.), listed as CHP) was 1.0 (0.1) nmol/mg/min. For the same compound, the “clearance (Clin) of 400C relative to the 400R reference” value ([3]; 400C vs wild-type 400R) was 70%, the “transport efficiency (Vmax/Km) of 400C relative to the 400R reference” value ([3]; 400C vs wild-type 400R) was 48% and the Clin ([3]; mean (s.e.m.)) was 17.6 (1.5)^# µl/mg/min. The Clin ([3]; mean (s.e.m.), listed as CHP) was 17.6 (1.5) µl/mg/min, the “substrate of NET (specific uptake)” value [4] was “no substrates of NET” and the “effect of pretreatment on salsolinol-induced degeneration” value ([5]; cyclo(his-pro) 10 µmol/l, 12 h prior to salsolinol treatment) was “had no effect”.

From PMC1851987, “Identification of the Endogenous Key Substrates of the Human Organic Cation Transporter OCT2 and Their Implication in Function of Dopaminergic Neurons” (PLoS ONE, 2007)
